What was measured:
Type in all cases: biochemical
Abl (h) = Abl (h) (Homo sapiens, UniProt P00519); assay: Abl human kinase assay (glass-fiber filter); details: test concentration of 10^−6M; for inhibition at 1 µM: read-out: C1 score (inhibition of Abl human)
Method: (§1) In the glass-fiber filter technology the activity of the kinase of interest is measured using an appropriate substrate that is incubated with the aforementioned kinase protein in the presence of (^33P) radiolabeled ATP. (^33P) Phosphorylation of the substrate is subsequently measured as radioactivity bound on a glass fiber-filter.
(§2) All kinases are pre-diluted to a 10× working concentration prior to addition into the assay. The composition of the dilution buffer for each kinase is detailed below.
(§3) (specific activity approx. 500 cpm/pmol, concentration as required). The reaction is initiated by the addition of the MgATP mix. After incubation for 40 minutes at room temperature, the reaction is stopped by the addition of 5 μl of a 3% phosphoric acid solution. 10 μl of the reaction is then spotted onto a P30 filtermat and washed three times for 5 minutes in 75 mM phosphoric acid and once in methanol prior to drying and scintillation counting.

cSRC (h) = cSRC (h) (Homo sapiens, UniProt P12931); assay: cSRC human kinase assay (glass-fiber filter); details: test concentration of 10^−6M; for inhibition at 1 µM: read-out: C3 score (inhibition of cSRC human)
Method: (§4) The in vitro inhibition of a panel of kinases was assessed using either the glass-fiber filter technology as described by Davies, S. P. et al., Biochem J. […] In the glass-fiber filter technology the activity of the kinase of interest is measured using an appropriate substrate that is incubated with the aforementioned kinase protein in the presence of (^33P) radiolabeled ATP. (^33P) Phosphorylation of the substrate is subsequently measured as radioactivity bound on a glass fiber-filter. All kinases are pre-diluted to a 10× working concentration prior to addition into the assay. The composition of the dilution buffer for each kinase is detailed below. […] The reaction is initiated by the addition of the MgATP mix. […] 10 μl of the reaction is then spotted onto a P30 filtermat and washed three times for 5 minutes in 75 mM phosphoric acid and once in methanol prior to drying and scintillation counting.

EGFR (h) = EGFR (h) (Homo sapiens, UniProt P00533); assay: EGFR human kinase assay (glass-fiber filter); details: test concentration of 10^−6M; for inhibition at 1 µM: read-out: C4 score (inhibition of EGFR human)
Method: as §1, §2
as §3, with “In a final reaction volume of 25 μl, EGFR (h) (5-10 mU) is incubated with 8 mM MOPS pH 7.0, 0.2 mM EDTA, 10 mM MnCl2, 0.1 mg/ml poly(Glu, Tyr) 4:1, 10 mM MgAcetate and [γ-^33P-ATP] (specific” for “(specific”, “Filtermat A” for “P30 filtermat”

Fes (h) = Fes (h) (Homo sapiens, UniProt P07332); assay: Fes human kinase assay (glass-fiber filter); details: test concentration of 10^−6M; for inhibition at 1 µM: read-out: C4 score (inhibition of Fes human)
Method: as §1, §2
as §3, with “In a final reaction volume of 25 μl, Fes (h) (5-10 mU) is incubated with 8 mM MOPS pH 7.0, 0.2 mM EDTA, 0.1 mg/ml poly(Glu, Tyr) 4:1, 10 mM MgAcetate and [γ-^33P-ATP] (specific” for “(specific”, “Filtermat A” for “P30 filtermat”

Lck (h) = Lck (h) (Homo sapiens, UniProt P06239); assay: Lck human kinase assay (glass-fiber filter); details: test concentration of 10^−6M; for inhibition at 1 µM: read-out: C9 score (inhibition of Lck human)
Method: as §4, with “below. [table]” for “below.”

Lyn (h) = Lyn (h) (Homo sapiens, UniProt P07948); assay: Lyn human kinase assay (glass-fiber filter); details: test concentration of 10^−6M; for inhibition at 1 µM: read-out: C10 score (inhibition of Lyn human)
Method: as §1, §2
as §3, with “In a final reaction volume of […] (h) (5-10 mU) is incubated with 50 mM Tris pH 7.5, 0.1 mM EGTA, 0.1 mM Na3VO4, 0.1% O-mercaptoethanol, 0.1 mg/ml poly(Glu, Tyr) 4:1, 10 mM MgAcetate and [γ-^33P-ATP] (specific” for “(specific”, “Filtennat A” for “P30 filtermat”

Yes (h) = Yes (h) (Homo sapiens, UniProt P07947); assay: Yes human kinase assay (glass-fiber filter); details: test concentration of 10^−6M; for inhibition at 1 µM: read-out: C11 score (inhibition of Yes human)
Method: as §1, §2
as §3, with “In a final reaction volume of 25 μl, Yes (h) (5-10 mU) is incubated with 8 mM MOPS pH 7.0, 0.2 mM EDTA, 0.1 mg/ml poly(Glu, Tyr) 4:1, 10 mM MgAcetate and [γ-^33P-ATP] (specific” for “(specific”, “[…],” for “cpm/pmol,”, “Filtermat A” for “P30 filtermat”

Flt3 (h) = Flt3 (h) (Homo sapiens, UniProt P36888); assay: Flt3 human kinase assay (glass-fiber filter); details: test concentration of 10^−6M; read-out: C6 score (inhibition of Flt3 human)
Method: (§5) The in vitro inhibition of a panel of kinases was assessed using either the glass-fiber filter technology as described by Davies, S. P. et al., Biochem J. (2000), 351; p. 95-105.
as §1, §2
as §3, with “In a final reaction volume of 25 μl, Flt3 (h) (5-10 mU) is incubated with 8 mM MOPS pH 7.0, 0.2 mM EDTA, 50 μM […], 10 mM MgAcetate and [γ-^33P-ATP] (specific” for “(specific”

Fms (h) = Fms (h) (Homo sapiens, UniProt P07333); assay: Fms human kinase assay (glass-fiber filter); details: test concentration of 10^−6M; read-out: C7 score (inhibition of Fms human)
Method: as §5, §1, §2
as §3, with “In a final reaction volume of 25 μl, Fms (h) (5-10 mU) is incubated with 8 mM MOPS pH 7.0, 0.2 mM EDTA, 250 μM […], 10 mM MgAcetate and [γ-^33P-ATP] (specific” for “(specific”

GSK3B (h) = GSK3B (h) (Homo sapiens, UniProt P49841); assay: GSK3β human kinase assay (glass-fiber filter); details: test concentration of 10^−6M; read-out: C8 score (inhibition of GSK3β human)
Method: as §5, §1, §2
as §3, with “In a final reaction volume of 25 μl, GSK3B (h) (5-10 mU) is incubated with 8 mM MOPS pH 7.0, 0.2 mM EDTA, 20 μM […](p)EDEEE (phospho GS2 peptide), 10 mM MgAcetate and [γ-^33P-ATP] (specific” for “(specific”, “50” for “75”

Yes (h), sequence (P07947 whole entry): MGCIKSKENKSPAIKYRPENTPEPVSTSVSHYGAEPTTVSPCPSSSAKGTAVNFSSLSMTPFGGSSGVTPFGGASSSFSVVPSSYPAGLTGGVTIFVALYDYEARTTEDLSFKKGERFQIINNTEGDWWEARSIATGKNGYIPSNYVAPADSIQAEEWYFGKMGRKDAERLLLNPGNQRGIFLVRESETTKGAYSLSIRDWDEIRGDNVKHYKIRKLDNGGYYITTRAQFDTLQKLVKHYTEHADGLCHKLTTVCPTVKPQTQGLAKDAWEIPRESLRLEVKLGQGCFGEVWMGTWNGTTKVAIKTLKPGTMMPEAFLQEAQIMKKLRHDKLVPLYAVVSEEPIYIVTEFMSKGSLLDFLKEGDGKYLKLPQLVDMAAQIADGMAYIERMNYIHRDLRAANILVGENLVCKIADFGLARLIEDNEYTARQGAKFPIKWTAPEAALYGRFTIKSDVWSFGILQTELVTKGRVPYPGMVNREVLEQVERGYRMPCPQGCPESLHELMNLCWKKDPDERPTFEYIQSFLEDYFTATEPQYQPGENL
EGFR (h), sequence (P00533 25-1210): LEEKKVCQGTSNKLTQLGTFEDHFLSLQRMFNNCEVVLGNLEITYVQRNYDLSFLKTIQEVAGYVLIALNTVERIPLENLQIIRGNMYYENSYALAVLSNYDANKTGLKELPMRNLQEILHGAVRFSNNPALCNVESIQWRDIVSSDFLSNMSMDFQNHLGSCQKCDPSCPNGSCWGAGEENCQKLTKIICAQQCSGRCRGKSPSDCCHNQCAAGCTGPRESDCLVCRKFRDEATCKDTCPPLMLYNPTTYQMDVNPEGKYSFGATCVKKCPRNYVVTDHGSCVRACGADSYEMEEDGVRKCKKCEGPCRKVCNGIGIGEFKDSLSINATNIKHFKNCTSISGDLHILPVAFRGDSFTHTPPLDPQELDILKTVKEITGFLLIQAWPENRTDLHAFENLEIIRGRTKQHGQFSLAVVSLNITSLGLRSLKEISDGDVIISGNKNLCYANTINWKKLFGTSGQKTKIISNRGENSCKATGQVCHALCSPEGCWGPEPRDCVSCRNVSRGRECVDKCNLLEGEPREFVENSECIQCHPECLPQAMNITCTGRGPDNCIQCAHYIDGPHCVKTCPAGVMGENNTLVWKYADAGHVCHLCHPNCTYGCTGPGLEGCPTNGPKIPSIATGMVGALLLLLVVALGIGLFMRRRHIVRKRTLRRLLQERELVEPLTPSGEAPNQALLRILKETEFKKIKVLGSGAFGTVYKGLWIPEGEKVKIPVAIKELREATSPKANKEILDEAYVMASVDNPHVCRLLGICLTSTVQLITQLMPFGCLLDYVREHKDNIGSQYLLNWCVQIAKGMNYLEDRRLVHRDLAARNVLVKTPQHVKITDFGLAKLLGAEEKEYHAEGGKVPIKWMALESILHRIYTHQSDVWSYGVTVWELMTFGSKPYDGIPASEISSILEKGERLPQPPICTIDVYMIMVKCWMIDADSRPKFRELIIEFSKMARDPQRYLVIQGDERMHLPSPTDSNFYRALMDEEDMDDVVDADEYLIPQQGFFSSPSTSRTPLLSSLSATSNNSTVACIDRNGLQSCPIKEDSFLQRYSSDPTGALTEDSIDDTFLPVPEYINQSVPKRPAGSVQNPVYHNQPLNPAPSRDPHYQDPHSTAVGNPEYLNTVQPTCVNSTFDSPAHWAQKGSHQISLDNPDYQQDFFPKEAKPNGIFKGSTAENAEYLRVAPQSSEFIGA
Lck (h), sequence (P06239 whole entry): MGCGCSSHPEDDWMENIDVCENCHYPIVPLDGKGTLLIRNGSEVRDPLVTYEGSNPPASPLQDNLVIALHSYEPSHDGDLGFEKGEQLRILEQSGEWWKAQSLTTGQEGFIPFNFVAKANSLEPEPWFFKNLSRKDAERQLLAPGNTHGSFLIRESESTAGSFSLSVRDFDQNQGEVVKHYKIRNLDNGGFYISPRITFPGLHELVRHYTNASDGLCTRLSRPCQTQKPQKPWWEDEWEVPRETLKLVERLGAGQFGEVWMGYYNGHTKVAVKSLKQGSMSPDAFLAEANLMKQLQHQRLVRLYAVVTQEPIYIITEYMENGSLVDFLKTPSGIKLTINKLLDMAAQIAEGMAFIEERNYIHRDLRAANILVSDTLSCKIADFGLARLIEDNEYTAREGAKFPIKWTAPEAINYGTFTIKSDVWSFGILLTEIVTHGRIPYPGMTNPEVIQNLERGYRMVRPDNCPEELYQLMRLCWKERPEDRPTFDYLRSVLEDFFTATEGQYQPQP
Abl (h), sequence (P00519 whole entry): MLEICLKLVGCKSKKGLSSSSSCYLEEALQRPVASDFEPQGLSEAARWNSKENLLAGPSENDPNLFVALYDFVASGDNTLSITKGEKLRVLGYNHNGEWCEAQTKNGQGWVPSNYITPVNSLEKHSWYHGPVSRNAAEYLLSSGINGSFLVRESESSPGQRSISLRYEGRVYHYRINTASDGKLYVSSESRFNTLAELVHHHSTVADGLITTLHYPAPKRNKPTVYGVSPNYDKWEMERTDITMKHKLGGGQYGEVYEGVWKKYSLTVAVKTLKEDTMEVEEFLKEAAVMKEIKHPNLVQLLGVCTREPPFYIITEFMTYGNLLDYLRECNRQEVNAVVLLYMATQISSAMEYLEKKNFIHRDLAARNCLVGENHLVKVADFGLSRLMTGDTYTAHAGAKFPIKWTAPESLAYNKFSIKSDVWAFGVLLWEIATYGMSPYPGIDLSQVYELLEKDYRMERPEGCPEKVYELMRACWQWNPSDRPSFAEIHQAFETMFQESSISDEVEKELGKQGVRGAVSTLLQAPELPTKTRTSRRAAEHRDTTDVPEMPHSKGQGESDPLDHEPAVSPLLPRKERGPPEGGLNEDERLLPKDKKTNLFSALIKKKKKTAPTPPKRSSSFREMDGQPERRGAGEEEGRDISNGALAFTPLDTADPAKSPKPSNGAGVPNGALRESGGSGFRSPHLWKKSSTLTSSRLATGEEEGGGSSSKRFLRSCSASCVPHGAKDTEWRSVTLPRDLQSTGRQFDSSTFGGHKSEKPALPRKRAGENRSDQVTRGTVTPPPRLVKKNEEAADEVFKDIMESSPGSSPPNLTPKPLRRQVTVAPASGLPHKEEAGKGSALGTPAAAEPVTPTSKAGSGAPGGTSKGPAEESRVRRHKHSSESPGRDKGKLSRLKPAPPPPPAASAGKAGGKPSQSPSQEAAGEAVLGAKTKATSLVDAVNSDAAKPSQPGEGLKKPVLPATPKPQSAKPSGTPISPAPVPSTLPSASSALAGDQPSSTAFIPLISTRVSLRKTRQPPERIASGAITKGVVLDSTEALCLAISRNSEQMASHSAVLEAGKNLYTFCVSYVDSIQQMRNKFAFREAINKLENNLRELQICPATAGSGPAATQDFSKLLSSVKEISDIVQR
Fms (h), sequence (P07333 20-972): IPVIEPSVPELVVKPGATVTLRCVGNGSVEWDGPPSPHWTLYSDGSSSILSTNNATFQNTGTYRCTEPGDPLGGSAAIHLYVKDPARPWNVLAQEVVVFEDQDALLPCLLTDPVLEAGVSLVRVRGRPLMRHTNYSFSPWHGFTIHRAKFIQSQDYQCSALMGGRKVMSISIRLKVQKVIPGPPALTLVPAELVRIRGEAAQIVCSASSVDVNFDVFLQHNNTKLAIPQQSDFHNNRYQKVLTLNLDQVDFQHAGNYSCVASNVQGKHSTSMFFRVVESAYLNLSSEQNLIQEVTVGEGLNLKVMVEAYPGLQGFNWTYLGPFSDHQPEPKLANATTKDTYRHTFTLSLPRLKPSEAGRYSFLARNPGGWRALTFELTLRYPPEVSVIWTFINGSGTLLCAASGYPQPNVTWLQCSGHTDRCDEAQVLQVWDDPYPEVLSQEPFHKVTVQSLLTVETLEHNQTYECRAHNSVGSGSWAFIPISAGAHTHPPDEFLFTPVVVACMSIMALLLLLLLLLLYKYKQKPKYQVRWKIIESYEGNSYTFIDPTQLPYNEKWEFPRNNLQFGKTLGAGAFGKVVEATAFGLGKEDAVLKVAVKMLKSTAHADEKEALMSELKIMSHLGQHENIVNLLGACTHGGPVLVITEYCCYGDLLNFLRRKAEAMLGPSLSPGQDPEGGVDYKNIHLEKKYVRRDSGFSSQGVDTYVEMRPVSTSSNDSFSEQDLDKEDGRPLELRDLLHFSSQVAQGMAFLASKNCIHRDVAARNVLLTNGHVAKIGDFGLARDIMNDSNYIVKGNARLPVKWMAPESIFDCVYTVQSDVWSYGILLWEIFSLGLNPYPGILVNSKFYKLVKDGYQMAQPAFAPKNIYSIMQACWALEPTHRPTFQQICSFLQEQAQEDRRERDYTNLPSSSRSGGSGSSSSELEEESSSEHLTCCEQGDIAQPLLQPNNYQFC
cSRC (h), sequence (P12931 whole entry): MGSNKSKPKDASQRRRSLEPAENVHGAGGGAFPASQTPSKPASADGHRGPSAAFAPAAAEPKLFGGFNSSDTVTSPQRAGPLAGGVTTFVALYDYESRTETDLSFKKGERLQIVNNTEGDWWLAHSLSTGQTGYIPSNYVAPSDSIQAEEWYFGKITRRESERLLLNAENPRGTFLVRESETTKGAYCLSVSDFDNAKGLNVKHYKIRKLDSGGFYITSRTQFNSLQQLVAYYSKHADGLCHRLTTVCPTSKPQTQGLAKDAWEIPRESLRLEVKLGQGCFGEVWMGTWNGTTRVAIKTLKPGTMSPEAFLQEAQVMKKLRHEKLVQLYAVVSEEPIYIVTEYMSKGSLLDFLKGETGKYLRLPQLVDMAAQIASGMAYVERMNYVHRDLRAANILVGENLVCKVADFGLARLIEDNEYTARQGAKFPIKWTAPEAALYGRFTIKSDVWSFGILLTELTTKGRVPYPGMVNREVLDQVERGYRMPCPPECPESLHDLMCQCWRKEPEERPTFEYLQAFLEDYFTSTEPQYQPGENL

Structure (SMILES) | inhibition at 1 µM (Abl (h)) | inhibition at 1 µM (EGFR (h)) | inhibition at 1 µM (Fes (h)) | inhibition at 1 µM (Flt3 (h)) | inhibition at 1 µM (Fms (h)) | inhibition at 1 µM (Lck (h)) | inhibition at 1 µM (Lyn (h)) | inhibition at 1 µM (Yes (h)) | inhibition at 1 µM (cSRC (h)) | inhibition at 1 µM (GSK3B (h)) | C1 score (inhibition of Abl human) (Abl (h)) | C3 score (inhibition of cSRC human) (cSRC (h)) | C4 score (inhibition of EGFR human) (EGFR (h)) | C4 score (inhibition of Fes human) (Fes (h)) | C9 score (inhibition of Lck human) (Lck (h)) | C10 score (inhibition of Lyn human) (Lyn (h)) | C11 score (inhibition of Yes human) (Yes (h))
COc1ccc2cc1OCCCNC(=O)[C@H](CC(C)C)NC(=O)Cc1ccc(Cl)cc1Nc1cc(ncn1)N2 [Compound 12, 6, 2:12,8-dimetheno-7H-13,1,3,5,7,17,20-benzoxahexaazacyclotetracosine-18,21-dione, 25-chloro-1,14,15,16,17,19,20,22-octahydro-11-methoxy-19-(2-methylpropyl)-, (19S)-] |  |  |  |  |  |  |  |  |  |  | 2 (Score 2=30-60% inhibition) | 4 (Score 4=>80% inhibition) | 4 (Score 4=>80% inhibition) | 2 (Score 2=30-60% inhibition) | 4 (Score 4=>80% inhibition) | 4 (Score 4=>80% inhibition) | 4 (Score 4=>80% inhibition)
O=C1COc2cccc(c2)Nc2nccc(n2)Nc2cccc(c2)CN1 [Compound 23, 18-oxa-2,4,8,15,25-pentaazatetracyclo[17.3.1.1~3,7~.1~9,13~]pentacosa-1(23),3,5,7(25),9,11,13(24),19,21-nonaen-16-one] | 10 to 30% |  | 10 to 30% | 30 to 60% |  |  |  |  |  |  |  |  |  |  |  |  | 
O=C1CCc2cccc(c2)Nc2cc(ncn2)Nc2cccc(c2)CN2CCN1CC2 [Compound 43, 1,8,10,12,14,23-hexaazapentacyclo[21.2.2.1~3,7~.1~9,13~.1~15,19~]triaconta-3,5,7(30),9,11,13(29),15,17,19(28)-nonaen-22-one] |  | 30 to 60% |  | 30 to 60% | 30 to 60% | 10 to 30% | 30 to 60% | 10 to 30% |  |  |  |  |  |  |  |  | 

More lines, main results first:

inhibition at 1 µM (Abl (h)) | inhibition at 1 µM (EGFR (h)) | inhibition at 1 µM (Fes (h)) | inhibition at 1 µM (Flt3 (h)) | inhibition at 1 µM (Fms (h)) | inhibition at 1 µM (Lck (h)) | inhibition at 1 µM (Lyn (h)) | inhibition at 1 µM (Yes (h)) | inhibition at 1 µM (cSRC (h)) | inhibition at 1 µM (GSK3B (h)) | Structure (SMILES) | C1 score (inhibition of Abl human) (Abl (h)) | C3 score (inhibition of cSRC human) (cSRC (h)) | C4 score (inhibition of EGFR human) (EGFR (h)) | C4 score (inhibition of Fes human) (Fes (h)) | C9 score (inhibition of Lck human) (Lck (h)) | C10 score (inhibition of Lyn human) (Lyn (h)) | C11 score (inhibition of Yes human) (Yes (h))
10 to 30% | 10 to 30% | 10 to 30% | 30 to 60% | 30 to 60% | 10 to 30% | 30 to 60% | 10 to 30% |  |  | N#Cc1cnc2nc1Nc1cccc(c1)C(=O)NCCCCCOc1cccc(c1)N2 [Compound 18, 21-oxa-2,4,8,15,28-pentaazatetracyclo[20.3.1.1~3,7~.1~9,13~]octacosa-1(26),3,5,7(28),9,11,13(27),22,24-nonaene-6-carbonitrile, 14-oxo-] |  |  |  |  |  |  | 
10 to 30% |  |  | 60 to 80% | 30 to 60% | 30 to 60% | 10 to 30% | 10 to 30% | 10 to 30% | 10 to 30% | O=C1NCCCCCCOc2cccc(c2)Nc2ccnc(n2)Nc2cccc1c2 [Compound 21, 14-oxa-2,4,8,21,29-pentaazatetracyclo[21.3.1.1~3,7~.1~9,13~]nonacosa-1(27),3,5,7(29),9,11,13(28),23,25-nonaen-22-one] |  |  |  |  |  |  | 
30 to 60% |  |  | 60 to 80% | 10 to 30% | 30 to 60% | 10 to 30% | 10 to 30% | 10 to 30% |  | O=C1NCc2cccc(c2)Nc2ccnc(n2)Nc2cccc1c2 [Compound 24, 2,4,8,15,23-pentaazatetracyclo[15.3.1.1~3,7~.1~9,13~]tricosa-1(21),3,5,7(23),9,11,13(22),17,19-nonaen-16-one] |  |  |  |  |  |  | 
 |  |  | > 80% | 10 to 30% | 30 to 60% |  | 60 to 80% | 10 to 30% |  | O=C1COc2cccc(c2)Nc2nccc(n2)Nc2cccc(c2)OCCCN1 [Compound 29, 14,21-dioxa-2,4,8,18,28-pentaazatetracyclo[20.3.1.1~3,7~.1~9,13~]octacosa-1(26),3,5,7(28),9,11,13(27),22,24-nonaen-19-one] |  |  |  |  |  |  | 
